Measurements published in patent US20090082402A1, “Methods of treating genitourinary disorders using inhibitors of soluble epoxide hydrolase” (Roche Palo Alto LLC, priority 2006, published 2009).

Test system: bladder smooth muscle
Assay: Contraction studies on isolated rat bladder strips with electrical field stimulation
Assay type: cell-based, Sprague-Dawley rat
Conditions: isolated bladder tissue
Experimental: Bladder strips from (male/female) Sprague-Dawley (Charles River) rat bladders were mounted in 10 ml tissue baths maintained at 37 C, containing 10 ml of a saline solution consisting of: NaCl (118.5 mM), KCl (4.8 mM), NaHCO3 (25 mM), KH2PO4 (1.2 mM), MgSO4 (1.2 mM), CaCl2 (2.5 mM), and glucose (11.0 mM). The bladder strips were aerated with a mixture of 95% O2 and 5% CO2. The tissues were initially equilibrated for one h with 1 g. resting weight. The control response to 67 mM KCl was then determined. Electrical field stimulation (EFS) was provided through platinum electrodes of 1.14 cm^2 surface area located one cm apart on either side of the tissue. Stimulation to the platinum electrodes was provided by a GRASS Medical Instruments (Quincy, Mass.) S88 Square Pulse Stimulator set to deliver 10 V pulses with a 0.5 ms pulse duration in a pulse train of 10 seconds at either 1, 2, 4, or 8 Hz.

| SMILES | effect on bladder smooth muscle stimulated by low frequency electric fields (relaxation) |
| --- | --- |
| CCCCC/C=C\C/C=C\CC1OC1C/C=C\CCCC(=O)O (stereo not shown) [8,9-EET, 8,9-epoxyeicosatrienoic acid] | no effects |
| CCCCC/C=C\CC1OC1C/C=C\C/C=C\CCCC(=O)O (stereo not shown) [11,12-EET, 11,12-epoxyeicosatrienoic acid] | no effects |
| CCCCCC(O)C(O)CC=CCC=CCC=CCCCC(=O)O (stereo not shown) [14,15-DHET, 14,15-dihydroxyeicosatrienoic acid] | no effects |
| CCCCCC1OC1CC=CCC=CCC=CCCCC(=O)O (stereo not shown) [14,15-EET, 14,15-epoxyeicosatrienoic acid] | relaxes bladder smooth muscle |
